Values after ≈ are worked out from the molar mass of the structure shown. Where a name gives a salt, the structure may show the parent alone.
Key:
Acute toxicity = conditions: mouse, in vivo, ip; intraperitoneal, mice, mortality 48 hours later; read-out: Approximate DL50 (50% lethal dose)
Description: The 50% lethal dose (DL50) was determined by intraperitoneal administration of the products to mice and the mortality was determined 48 hours later.

[1] = system: rigidity provoked by reserpine; experiment: Antagonism to reserpinic rigidity (electromyogram); assay type: in vivo, rats; set-up: key to Antagonism to reserpine rigidity: The results were expressed by an increasing number of + sign; ++: The results were expressed by an increasing number of + sign; conditions: for Antagonism to reserpine rigidity: 20 mg/kg i.v., 30 minutes after 10 mg/kg i.v. reserpine, EMG, rats; for activity against reserpine rigidity (in words): dose of 20 mg/kg
Description: 3. Antagonism to reserpinic rigidity
This test was effected on rats using the procedure of Jurna I. [Arch. Pharmak. Exp. Path., Vol. 260 (1968), p. 80-88] wherein the electromyogram (EMG) caused by a dorsiflexion due to the shock of the foot by electrodes placed against the muscles of the front portion of the rear paw of the animal. A dose of 10 mg/kg of reserpine was intravenously administered and then 30 minutes later when the hypertonicity of the muscle was the maximum, the test product was intravenously administered at a dose of 20 mg/kg. The inhibition was observed by the electromyogram showing the antagonism exercised by the test product against the rigidity provoked by reserpine.

[2] = system: serotonine-provoked contraction of guinea pig ileon; experiment: Antiserotonine activity on isolated ileon; assay type: cell-based; conditions: for IC50: Cavia porcellus, isolated guinea pig ileon, Tyrode liquid 37° C, contact time one minute, read-out: IC50 (approximate 50% inhibiting concentration, contraction by serotonine)
Description: Serotonine provokes contraction of a certain number of smooth muscles and especially guinea pig ileon and antiserotonine activity is determined in vitro on the isolated ileon of the guinea pig immersed in oxygenated Tyrode liquid at 37° C. The activity of the antagonist is measured by the concentration thereof which after a contact time of one minute diminishes by about 50% the contraction of a portion of ileon when a standard dose of serotonine is added to the Tyrode liquid. The approximate 50% inhibiting concentration (IC50) was determined in micrograms per ml and the results are in Table IV.

amytal-induced sleep = experiment: Potentialization of sleeping time (amytal); assay type: in vivo, female mice; conditions: for minimal effective dose: Mus musculus, ip, 1 h, i.p. one hour before 80 mg/kg i.v. amytal, female mice 18 to 22 g, 25° C, read-out: DE50 (minimum dose for significantly prolonging the duration of sleep); for neurosedative activity (in words): conclusion from Table II
Description: 2. Potentialization of sleeping time
This test was effected with amytal (5-ethyl-5-isoamyl-barbituric acid) on groups of female mice weighing 18 to 22 g and held at 25° C for the duration of the test. The test products were administered intraperitoneally at different does one hour before the intravenous administration of 80 mg/kg of amytal and the time of sleep was recorded as the suspending time for the straighting reflex of the mice as negative.

[3] = system: platelet aggregation caused by collagen; experiment: Platelet aggregation caused by collagen (turbidimetric method of Born); assay type: cell-based, rabbit; conditions: for IC50: Oryctolagus cuniculus, rabbit platelet-rich plasma, 40 μg/ml collagen, read-out: IC50 (dose which inhibited by 50% the aggregation caused by collagen); for activity against platelet aggregation caused by collagen (in words): conclusion in words
Description: Platelet aggregation is effected with a Mustard aggregometer using the turbidimetric method of Born [J. Physiol., Vol. 168 (1963), p. 178-195] which consists of measuring the variation in transmission of a light ray or beam passing through a tube containing a plasma rich in platelets. When the aggregates are formed, the amount of light transmitted is greater and the optical density is diminished. The platelets used are obtained from rabbit plasma and the agent inducing the aggregation was 40 μg/ml of collagen. The 50% inhibiting concentration (IC50) was determined for each product which was the dose which inhibited by 50% the aggregation caused by collagen.

[4] = system: toxicity of the amphetamine group (dexamphetamine sulfate); experiment: Antagonism toward amphetamine type (dexamphetamine-induced mortality); assay type: in vivo, male mice; conditions: for ED50: Mus musculus, ip, i.p. one hour before 15 mg/kg i.p. dexamphetamine sulfate, mortality at 4 hours, male mice, read-out: DE50 (dose which reduced by 50% the number of dead animals); for antagonism with respect to the toxicity of the amphetamine group (in words): conclusion from Table I
Description: 1. Antagonism toward amphetamine type
The antagonism of the compounds with regard to amphetaminic group was studied on groups of 10 male mice which received intraperitoneally 15 mg/kg of dexamphetamine sulfate one hour after the intraperitoneal administration of the test compound.
The mortality per group was totally counted 4 hours after the administration of dexamphetamine sulfate and the DE50 dose which reduced by 50% the number of dead animals was determined as shown in Table I.

COc1ccc2[nH]cc(CC3NCCc4c3[nH]c3ccc(OC)cc43)c2c1 (centres unmarked) [Example 1, 1-(5'-methoxy-3'-indolyl-methyl)-6-methoxy-1,2,3,4-tetrahydro[9H]-pyrido-[3,4-b]-indole-hydrochloride]
LD50 at 48 h (Acute toxicity): 150 mg/kg | Antagonism to reserpine rigidity [1]: ++ | activity against reserpine rigidity (in words) [1]: very active | IC50 [2]: 0.5 µg/mL | minimal effective dose (amytal-induced sleep): 10 mg/kg | neurosedative activity (in words) (amytal-induced sleep): very important neurosedative activity

COc1ccc2[nH]cc(CC3NCCc4c3[nH]c3ccc(O)cc43)c2c1 (centres unmarked) [Example 2, 1-(5'-methoxy-3'-indolyl-methyl)-6-hydroxy-1,2,3,4-tetrahydro[9H]-pyrido-[3,4-b]-indole]
LD50 at 48 h (Acute toxicity): 200 mg/kg | IC50 [2]: 0.5 to 1 µg/mL (≈ 1.44 to 2.88 µM) | minimal effective dose (amytal-induced sleep): 50 mg/kg

COc1ccc2[nH]c3c(c2c1)CCNC3Cc1c[nH]c2ccccc12 (centres unmarked) [Example 3, 1-(3'-indolylmethyl)-6-methoxy-1,2,3,4-tetrahydro-[9H]-pyrido-[3,4-b]-indole hydrochloride]
LD50 at 48 h (Acute toxicity): 350 mg/kg | Antagonism to reserpine rigidity [1]: + | IC50 [2]: 1 µg/mL

Clc1ccc2[nH]cc(CC3NCCc4c3[nH]c3ccccc43)c2c1 (centres unmarked) [Example 4, 1-(5'-chloro-3'-indolyl-methyl)-1,2,3,4-tetrahydro-[9H]-pyrido-[3,4-b]-indole hydrochloride]
LD50 at 48 h (Acute toxicity): 500 mg/kg | minimal effective dose (amytal-induced sleep): 50 mg/kg

COc1ccc2[nH]cc(CC3NCCc4c3[nH]c3ccccc43)c2c1 (centres unmarked) [Example 5, 1-(5'-methoxy-3'-indolyl-methyl)-1,2,3,4-tetrahydro-[9H]pyrido-[3,4-b]-indole-hydrochloride]
LD50 at 48 h (Acute toxicity): 150 mg/kg | Antagonism to reserpine rigidity [1]: ++ | activity against reserpine rigidity (in words) [1]: very active | IC50 [3]: ~100 µM | IC50 [2]: 2 µg/mL | minimal effective dose (amytal-induced sleep): 50 mg/kg

Oc1ccc2[nH]c3c(c2c1)CCNC3Cc1c[nH]c2ccccc12 (centres unmarked) [Example 6, 6-hydroxy-1-(3'-indolyl-methyl)-1,2,3,4-tetrahydro [9H]pyrido-[3,4-b]-indole-fumarate]
LD50 at 48 h (Acute toxicity): 150 mg/kg | activity against platelet aggregation caused by collagen (in words) [3]: important activity | ED50 [4]: 35 mg/kg | antagonism with respect to the toxicity of the amphetamine group (in words) [4]: important antagonism | IC50 [2]: 2 µg/mL (≈ 6.3 µM) | minimal effective dose (amytal-induced sleep): 20 mg/kg

Clc1ccc2[nH]c3c(c2c1)CCNC3Cc1c[nH]c2ccccc12 (centres unmarked) [Example 7, 6-chloro-1-(3'-indolylmethyl)-1,2,3,4-tetrahydro-[9H]-pyrido-[3,4-b]-indole]
LD50 at 48 h (Acute toxicity): 150 mg/kg | ED50 [4]: 20 mg/kg | antagonism with respect to the toxicity of the amphetamine group (in words) [4]: important antagonism | IC50 [2]: 1 to 2 µg/mL (≈ 2.98 to 5.96 µM) | minimal effective dose (amytal-induced sleep): 10 mg/kg | neurosedative activity (in words) (amytal-induced sleep): very important neurosedative activity

Oc1ccc2[nH]cc(CC3NCCc4c3[nH]c3ccccc43)c2c1 (centres unmarked) [Example 9, 1-(5'-hydroxy-3'-indolyl-methyl)-1,2,3,4-tetrahydro-[9H]-pyrido-[3,4-b]-indole-hydrochloride]
IC50 [3]: 1 µM | activity against platelet aggregation caused by collagen (in words) [3]: important activity | ED50 [4]: 50 mg/kg | IC50 [2]: 0.1 to 0.2 µg/mL | antiserotonine activity (in words) ([2]; conclusion in words): important antiserotonine activity

c1ccc(COc2ccc3[nH]cc(CC4NCCc5c4[nH]c4ccc(OCc6ccccc6)cc54)c3c2)cc1 (centres unmarked) [Example 10, 1-(5'-benzyloxy-3' -indolylmethyl)-6-benzyloxy-1,2,3,4-tetrahydro-[9H]-pyrido-[3,4-b]-indole-hydrochloride]
LD50 at 48 h (Acute toxicity): 300 mg/kg
